Reference: patent US10045983B2, “Heteroaryl pyridone and aza-pyrodine compounds” (Genentech, Inc., priority 2011, dated 2018)
Read-outs that look alike come from different tables or passages of the source.

Experiment: CD69 Whole Blood Assay (CD69 Hu Blood FACS)
Format: cell-based, human
Conditions: Lymphocyte, human whole blood, anti-IgM activated B lymphocytes, FACS, IC70
Description: A CD69 Whole Blood Assay can be conducted on Formula I compounds to determine the ability of compounds to inhibit the production of CD69 by B lymphocytes in human whole blood activated by crosslinking surface IgM with goat F(ab′)2 anti-human IgM (Example 907). CD69 is a type II C-type lectin involved in lymphocyte migration and cytokine secretion. CD69 expression represents one of the earliest available indicators of leukocyte activation and its rapid induction occurs through transcriptional activation (Vazquez et al (2009) Jour. of Immunology Published Oct. 19, 2009, doi:10.4049/jimmunol.0900839). Concentration-dependent inhibition of antigen receptor stimulation by selective Btk inhibitors induces cell surface expression of the lymphocyte activation marker CD69 (Honigberg et al (2010) Proc. Natl. Acad. Sci. 107(29):13075-13080). Thus, CD69 inhibition by selective Btk inhibitors may be correlated with therapeutic efficacy of certain B-cell disorders.

[1] = Table 1, read-out: CD69 Hu Blood FACS IC70
[2] = Table 2 (unit inferred), read-out: CD69 Hu Blood FACS (IC70)

| SMILES | IC70 [1] | IC70 [2] |
| --- | --- | --- |
| CC[C@H]1CN(C2COC2)CCN1c1ccc(Nc2cc(-c3ccnc(N4CCc5c(cc6n5CCCC6)C4=O)c3CO)cn(C)c2=O)nc1 [Example 161, 2-{5-[5-((S)-2-Ethyl-4-oxetan-3-yl-piperazin-1-yl)-pyridin-2-ylamino]-3′-hydroxymethyl-1-methyl-6-oxo-1,6-dihydro-[3,4′]bipyridinyl-2′-yl}-2,3,5,6,7,8-hexahydro-4H-2,4b-diaza-fluoren-1-one] | 64 nM | – |
| C[C@@H]1CN(c2ccc(Nc3cc(-c4ccnc(N5CCn6c7c(c(F)c6C5=O)CCCC7)c4CO)cn(C)c3=O)nc2)[C@@H](C)CN1C1COC1 [Example 156, 2-{5-[5-((2S,5R)-2,5-Dimethyl-4-oxetan-3-yl-piperazin-1-yl)-pyridin-2-ylamino]-3′-hydroxymethyl-1-methyl-6-oxo-1,6-dihydro-[3,4′]bipyridinyl-2′-yl}-10-fluoro-3,4,6,7,8,9-hexahydro-2H-pyrazino[1,2-a]indol-1-one] | 14.5 nM | – |
| C[C@H]1CN(C2COC2)CCN1c1ccc(Nc2cc(-c3ccnc(N4CCn5c(cc6c5CC(C)(C)C6)C4=O)c3CO)cn(C)c2=O)nc1 [Example 130, (3 S)-10-[4-[1-methyl-5-({5-[2-methyl 4-(oxetan-3-yl)piperazin-1-yl]pyridine-2-yl}amino)-6-oxo-1,6-dihydropyridin-3-yl]-3-(hydroxymethyl)pyridin-2-yl]-4,4-dimethyl-1,10-diazatricyclo[6.4.0.0^2,6]dodeca-2(6),7-dien-9-one] | 12 nM | – |
| Cn1cc(-c2ccnc(N3CCn4c(cc5c4CCCC5)C3=O)c2CO)cc(Nc2cnc(N3CCN(C4COC4)CC3)cn2)c1=O [Example 189, 2-(3-(hydroxymethyl)-4-(1-methyl-5-(5-(4-(oxetan-3-yl)piperazin-1-yl)pyrazin-2-ylamino)-6-oxo-1,6-dihydropyridin-3-yl)pyridin-2-yl)-3,4,6,7,8,9-hexahydropyrazino[1,2-a]indol-1(2H)-one] | 652 nM | – |
| CN1CC(c2ccc(Nc3cc(-c4ccnc(N5CCn6c(cc7c6CCCC7)C5=O)c4CO)cn(C)c3=O)nc2)C1 [Example 239, 2-[3-(hydroxymethyl)-4-[1-methyl-5-[[5-(1-methylazetidin-3-yl)-2-pyridyl]amino]-6-oxo-3-pyridyl]-2-pyridyl]-3,4,6,7,8,9-hexahydropyrazino[1,2-a]indol-1-one] | – | 153 nM |
| CN1CCn2nc(Nc3cc(-c4ccnc(-n5ncc6c7c(sc6c5=O)CCCC7)c4CO)cn(C)c3=O)cc2C1 [Example 181, 3-[3′-Hydroxymethyl-1-methyl-5-(5-methyl-4,5,6,7-tetrahydro-pyrazolo[1,5-a]pyrazin-2-ylamino)-6-oxo-1,6-dihydro-[3,4′]bipyridinyl-2′-yl]-6,7,8,9-tetrahydro-3H-benzo[4,5]thieno[2,3-d]pyridazin-4-one] | 144 nM | – |
| COCCN1CCn2nc(Nc3cc(-c4ccnc(N5CCc6c(sc7c6CC(C)(C)C7)C5=O)c4CO)cn(C)c3=O)cc2C1 [Example 308, 3-[3-(hydroxymethyl)-4-[5-[[5-(2-methoxyethyl)-6,7-dihydro-4H-pyrazolo[1,5-a]pyrazin-2-yl]amino]-1-methyl-6-oxo-3-pyridyl]-2-pyridyl]-7,7-dimethyl-1,2,6,8-tetrahydrocyclopenta[3,4]thieno[1,3-c]pyridin-4-one] | – | 54.6 nM |
| Cc1nccc(Nc2cc(-c3ccnc(N4CCn5c(cc6c5CC(C)(C)C6)C4=O)c3CO)cn(C)c2=O)n1 [Example 179, 2-[3′-Hydroxymethyl-1-methyl-5-(2-methyl-pyrimidin-4-ylamino)-6-oxo-1,6-dihydro-[3,4′]bipyridinyl-2′-yl]-7,7-dimethyl-3,4,7,8-tetrahydro-2H,6H-cyclopenta[4,5]pyrrolo[1,2-a]pyrazin-1-one] | 209 nM | – |
| Cn1cc(-c2ccnc(N3CCn4c(cc5c4CC(C)(C)C5)C3=O)c2CO)cc(Nc2ccc(C(F)(F)F)cn2)c1=O [Example 279, 3-[3-(hydroxymethyl)-4-[1-methyl-6-oxo-5-[[5-(trifluoromethyl)-2-pyridyl]amino]-3-pyridyl]-2-pyridyl]-7,7-dimethyl-1,2,6,8-tetrahydrocyclopenta[3,4]pyrrolo[3,5-b]pyrazin-4-one] | – | 2100 nM |
| CC[C@H]1CN(C2COC2)CCN1c1ccc(Nc2cc(-c3ccnc(-n4ccn5c6c(cc5c4=O)CCCC6)c3CO)cn(C)c2=O)nc1 [Example 165, 2-{5-[5-((S)-2-Ethyl-4-oxetan-3-yl-piperazin-1-yl)-pyridin-2-ylamino]-3′-hydroxymethyl-1-methyl-6-oxo-1,6-dihydro-[3,4′]bipyridinyl-2′-yl}-6,7,8,9-tetrahydro-2H-pyrazino[1,2-a]indol-1-one] | 41.7 nM | – |
| CN1CCn2nc(Nc3cc(-c4ccnc(N5CCn6c(cc7c6CCCC7)C5=O)c4CO)cn(C)c3=O)cc2C1 [Example 113, 2-(3-(Hydroxymethyl)-4-(1-methyl-5-(5-methyl-4,5,6,7-tetrahydropyrazolo[1,5-a]pyrazin-2-ylamino)-6-oxo-1,6-dihydropyridin-3-yl)pyridin-2-yl)-3,4,6,7,8,9-hexahydropyrazino[1,2-a]indol-1(2H)-one] | 62.5 nM | – |
| C[C@H]1CN(C2COC2)CCN1c1ccc(Nc2cc(-c3ccnc(N4CCn5c(cc6c5[C@H]5CC[C@@H]6C5)C4=O)c3CO)cn(C)c2=O)nc1 [Example 171, (S)-2-(3-(hydroxymethyl)-4-(1-methyl-5-(5-(2-methyl-4-(oxetan-3-yl)piperazin-1-yl)pyridin-2-ylamino)-6-oxo-1,6-dihydropyridin-3-yl)pyridin-2-yl)-3,4,6,7,8,9-hexahydro-6,9-methanopyrazino[1,2-a]indol-1(2H)-one] | 36 nM | – |
| Cn1cc(-c2ccnc(N3CCn4c(cc5c4CC(C)(C)C5)C3=O)c2CO)cc(Nc2ccc(C(F)(F)F)nn2)c1=O [Example 301, 3-[3-(hydroxymethyl)-4-[1-methyl-6-oxo-5-[[6-(trifluoromethyl)pyridazin-3-yl]amino]-3-pyridyl]-2-pyridyl]-7,7-dimethyl-1,2,6,8-tetrahydrocyclopenta[3,4]pyrrolo[3,5-b]pyrazin-4-one] | – | 1300 nM |
| Cn1cc(-c2ccnc(N3CCn4c(cc5c4CCCC5)C3=O)c2CO)cc(Nc2ccc(N3CCN(CC(C)(C)O)CC3)cn2)c1=O [Example 120, 2-(4-(5-(5-(4-(2-Hydroxy-2-methylpropyl)piperazin-1-yl)pyridin-2-ylamino)-1-methyl-6-oxo-1,6-dihydropyridin-3-yl)-3-(hydroxymethyl)pyridin-2-yl)-3,4,6,7,8,9-hexahydropyrazino[1,2-a]indol-1(2H)-one] | 283 nM | – |
| Cn1cc(-c2ccnc(N3CCn4c(cc5c4CC(C)(C)C5)C3=O)c2CO)cc(Nc2cn(C3COC3)cn2)c1=O [Example 285, 3-[3-(hydroxymethyl)-4-[1-methyl-5-[[1-(oxetan-3-yl)imidazol-4-yl]amino]-6-oxo-3-pyridyl]-2-pyridyl]-7,7-dimethyl-1,2,6,8-tetrahydrocyclopenta[3,4]pyrrolo[3,5-b]pyrazin-4-one] | – | 175 nM |
| Cn1cc(-c2ccnc(-n3ncc4c5c(sc4c3=O)CCCC5)c2CO)cc(Nc2cnccn2)c1=O [Example 194, 3-[3-(hydroxymethyl)-4-[1-methyl-6-oxo-5-(pyrazin-2-ylamino)-3-pyridyl]-2-pyridyl]-6,7,8,9-tetrahydrobenzothiopheno[2,3-d]pyridazin-4-one] | – | 1200 nM |
| Cc1cnc(Nc2cc(-c3ccnc(N4CCn5c(cc6c5CC(C)(C)C6)C4=O)c3CO)cn(C)c2=O)o1 [Example 262, 3-[3-(hydroxymethyl)-4-[1-methyl-5-[(5-methyloxazol-2-yl)amino]-6-oxo-3-pyridyl]-2-pyridyl]-7,7-dimethyl-1,2,6,8-tetrahydrocyclopenta[3,4]pyrrolo[3,5-b]pyrazin-4-one] | – | 577 nM |
| CN1CCN(c2cccc(Nc3cc(-c4ccnc(N5CCn6c(cc7c6CCCC7)C5=O)c4CO)cn(C)c3=O)n2)CC1 [Example 110, 2-(3-(Hydroxymethyl)-4-(1-methyl-5-(6-(4-methylpiperazin-1-yl)pyridine-2-ylamino)-6-oxo-1,6-dihydropyridin-3-yl)pyridin-2-yl)-3,4,6,7,8,9-hexahydropyrazino[1,2-a]indol-1(2H)-one] | 2700 nM | – |
| C[C@H]1CN(C2COC2)CCN1c1ccc(Nc2cc(-c3ccnc(-n4ncc5c6c(sc5c4=O)CC(C)(C)C6)c3CO)cn(C)c2=O)nc1 [Example 282, 3-[3-(hydroxymethyl)-4-[1-methyl-5-[[5-[(2S)-2-methyl-4-(oxetan-3-yl)piperazin-1-yl]-2-pyridyl]amino]-6-oxo-3-pyridyl]-2-pyridyl]-7,7-dimethyl-6,8-dihydrocyclopenta[3,4]thieno[1,3-d]pyridazin-4-one] | – | 17.4 nM |
| Cn1cc(-c2ccnc(N3CCn4c(cc5c4CC(C)(C)C5)C3=O)c2CO)cc(Nc2nc3c(s2)CNCC3)c1=O [Example 233, 3-[3-(hydroxymethyl)-4-[1-methyl-6-oxo-5-(4,5,6,7-tetrahydrothiazolo[5,4-c]pyridin-2-ylamino)-3-pyridyl]-2-pyridyl]-7,7-dimethyl-1,2,6,8-tetrahydrocyclopenta[3,4]pyrrolo[3,5-b]pyrazin-4-one] | – | 65.7 nM |
| C[C@H]1CN(C2COC2)CCN1c1ccc(Nc2cc(-c3ccnc(N4CCn5c(cc6c5CC(C)(C)C6)C4=O)c3CO)c[nH]c2=O)nc1 [Example 271, 3-[3-(hydroxymethyl)-4-[5-[[5-[(2S)-2-methyl-4-(oxetan-3-yl)piperazin-1-yl]-2-pyridyl]amino]-6-oxo-1H-pyridin-3-yl]-2-pyridyl]-7,7-dimethyl-1,2,6,8-tetrahydrocyclopenta[3,4]pyrrolo[3,5-b]pyrazin-4-one] | – | 24.5 nM |
